Results on eleven molecules are retold here after patent US10053468B2, “Heterocyclic compound” (TAKEDA PHARMACEUTICAL COMPANY LIMITED, priority 2013, dated 2018).

In assay [1] the test system is IL-17 production in human blood. Put plainly: Effect on IL-17 production in human blood. The assay is classed as cell-based. Particulars: 72 h, 10 μM test compound, IL-23 and Dynabeads stimulation, 3 days, read-out: Percent Inhibition at 10 μM (IL-17 production). As to the method:
Effect on IL-17 Production in Human Blood
The inhibitory effect of the test compound on IL-17 production in human blood was evaluated as follows. First, 150 μL of peripheral blood collected from healthy individuals using heparinized vacuum blood collection tubes was dispensed into each well of a 96-well plate (Corning), and 45 μL of RPMI 1640 medium (Gibco) containing 10% fetal bovine serum (FBS, Hyclone) and 30 μL of the test compound diluted with the medium was added to each well. The plate was then cultured for 30 min at 37° C. Cells were subsequently stimulated by adding 30 μL of 100 ng/mL human IL-23 (R&D) and 45 μL of Dynabeads Human (Invitrogen) to each well and culturing the plate for 3 days at 37° C. In wells without stimulation, 75 μL of RPMI 1640 medium containing 10% FBS was added instead of the IL-23 and Dynabeads solution. After culturing for 3 days, the culture supernatant was collected, and the amount of IL-17 in the supernatant was measured using an IL-17 ELISA kit (R&D).
The results of the above-described measurements (percent inhibition of IL-17 production with 10 μM of the test compound) are shown in Table 4.

For a further assay, the system named is IL-17A gene expression. The assay can be described thus: Effect on IL-23-induced cytokine expression in mice. It counts as in vivo, Balb/c mice. Particulars: Mus musculus, 30 min before and 8 hr after IL-23, versus the negative control group, read-out: Percent inhibition of IL-17A gene expression; for inhibition in vivo at 10 mg/kg: dose 10 mg/kg oral; for inhibition in vivo at 30 mg/kg: dose 30 mg/kg oral. As to the method:
Effect on IL-23-induced Cytokine Expression in Mice
A mouse IL-23 solution (500 ng/10 μL, prepared by Takeda Pharmaceutical Company Limited) or PBS (10 μL, negative control group) was administered intradermally in the ear of Balb/c mice (Charles River Japan, male, 7 weeks old). Twenty-four hr after administration, the ear was resected under isoflurane anesthesia. The test compound was suspended in 0.5% methylcellulose and administered orally 30 min before and 8 hr after IL-23 administration.
RNA extraction from the ear tissue and quantitative PCR were performed as follows. Specifically, ear tissue 5 mm in diameter was punched from an area of the resected ear centering on the IL-23 injection site, and the tissue was immersed in RNAlater (QIAGEN) for at least 18 hr. The RNAlater-treated ear tissue was homogenized in 350 μL of RLT buffer (RNeasy mini kit, QIAGEN) and treated (55° C., 10 min) with Proteinase K (QIAGEN). Total RNA was then extracted according to the RNeasy mini kit protocol. The RNA thus obtained was then reverse transcribed into cDNA using the High-Capacity RNA-to-cDNA kit (Applied Biosystems), and the amount of each cytokine expressions was measured by real-time PCR (Viia7™, Applied Biosystems). The PCR buffer used was TaqMan Fast Advanced Master Mix (Applied Biosystems), and TaqMan Gene Expression Assays (Applied Biosystems) Mm00439618 ml (IL-17A) and 4352341E (β-actin) were used for cytokine gene detection. The IL-17A gene expression level was normalized to the R-actin gene expression level, and the percent inhibition of IL-17A gene expression with the test compound was then calculated.
The results obtained with the above-described method (percent inhibition of IL-17A gene expression with oral administration of the test compound) are shown in Table 5.

Assay [2] deals with T1, RORγt (Homo sapiens, UniProt P51449).
T1 sequence (P51449 1-497 isoform P51449-2): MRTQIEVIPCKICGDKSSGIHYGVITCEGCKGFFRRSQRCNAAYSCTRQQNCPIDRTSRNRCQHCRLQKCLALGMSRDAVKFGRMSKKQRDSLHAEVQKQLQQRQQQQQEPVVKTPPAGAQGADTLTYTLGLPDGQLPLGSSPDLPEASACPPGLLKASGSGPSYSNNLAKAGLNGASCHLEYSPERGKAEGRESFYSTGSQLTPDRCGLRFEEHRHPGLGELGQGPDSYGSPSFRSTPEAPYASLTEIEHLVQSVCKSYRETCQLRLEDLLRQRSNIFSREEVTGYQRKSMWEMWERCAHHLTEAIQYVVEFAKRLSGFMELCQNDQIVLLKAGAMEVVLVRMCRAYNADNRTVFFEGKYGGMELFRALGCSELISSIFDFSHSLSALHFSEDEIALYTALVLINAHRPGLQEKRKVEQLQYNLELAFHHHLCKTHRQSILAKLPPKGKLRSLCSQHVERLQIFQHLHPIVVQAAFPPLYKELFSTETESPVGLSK
Put plainly: RORγt binding test using fluorescent-labeled synthetic ligand (TR-FRET). Particulars: read-out: Binding inhibitory rate of fluorescent-labeled synthetic ligand to RORγt at test compound 1 μM (%). The gist of the method: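 His-tagged RORγt (diluted to 240 nM) with compound, then fluorescent synthetic ligand (diluted to 12 μM), 20 min at room temperature, followed by Tb anti-His antibody (diluted to 8 nM), 20 min.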
(In TR-FRET formats the signal depends on donor and acceptor labels being close together.)

In assay [3] the target is T1, RORγt. Put plainly: Cofactor recruitment test (Alpha Screen, biotinylated SRC-1 peptide). The assay is classed as biochemical. Particulars: read-out: Signal value inhibitory rate at test compound 1 μM (%). As to the method: Cofactor Recruitment Test
Cofactor recruitment test was performed by Alpha Screen (Histidine Detection Kit, PerkinElmer) method. First, a test compound was diluted with an assay buffer (50 mM Tris-HCl (pH 7.5), 50 mM KCl, 1 mM DTT, 0.1% BSA) and added to a 384 well plate by 5 μL. […] The mixture was stood in a dark place for 1 hr, and the signal value was measured by Envision (PerkinElmer).

For assay [4], the target named is T1, RORγt. Put plainly: RORγt binding test using fluorescent-labeled cholesterol (TR-FRET). Conditions: read-out: Binding inhibitory rate of fluorescent-labeled cholesterol to RORγt at test compound 1 μM (%). The gist of the method:
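TR-FRET displacement with His-tagged RORγt, BODIPY-cholesterol and Tb-anti-His antibody in Tris-HCl pH 7.5, 100 mM NaCl, 1 mM DTT, 0.1% BSA. Compound, RORγt and labelled cholesterol were incubated 20 min at RT, then antibody was added for another 20 min.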

Assay [5] has as its target T1, RORγt. The assay can be described thus: Jurkat reporter test (human IL-17 ROR response element luciferase, RORγt vector). Particulars: read-out: Luminescence level inhibitory rate at test compound 3 μM (%). It counts as cell-based. The essentials: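 Jurkat cells were electroporated (1350 V, 10 ms, 3 pulses) with reporter constructs, then cultured overnight with compound in RPMI containing 10% lipid-reduced FCS, 10 mM HEPES pH 7.5 and 5 μM lovastatin. Luciferase was quantified by Bright-Glo luminescence after 10 min at room temperature.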

The mark [6] stands for this setting: test compound 3 μM, Jurkat cells.

Read-outs that look alike come from different tables or passages of the source.

Consider `CCOc1ccc2c(c1)CCN(C(=O)CC[C@H](C)C(=O)O)[C@H]2C(=O)Nc1cc(F)c2c(c1)CCC2(C)C` [Example 266, (2S)-5-((1R)-6-ethoxy-1-((7-fluoro-1,1-dimethyl-2,3-dihydro-1H-inden-5-yl)carbamoyl)-3,4-dihydroisoquinolin-2(1H)-yl)-2-methyl-5-oxopentanoic acid], for which the inhibition at 10 µM in assay [1] is 88%.
As to `COc1ccc2c(n1)CCN(C(=O)N1CC(CC(=O)O)C1)[C@H]2C(=O)Nc1cc(F)c2c(c1)CCC2(C)C` [Example 273, (1-(((5R)-5-((7-fluoro-1,1-dimethyl-2,3-dihydro-1H-inden-5-yl)carbamoyl)-2-methoxy-7,8-dihydro-1,6-naphthyridin-6(5H)-yl)carbonyl)azetidin-3-yl)acetic acid], the inhibition in vivo at 10 mg/kg in the assay with IL-17A gene expression turned out to be 77%. The inhibition at 10 µM in assay [1] is 89%.
Take `COCc1ccc2c(c1)CCN(C(=O)CCCC(=O)O)[C@H]2C(=O)Nc1cc(F)c(C(C)(C)C)c(F)c1` [Example 144, 5-((1R)-1-((4-tert-butyl-3,5-difluorophenyl)carbamoyl)-6-(methoxymethyl)-3,4-dihydroisoquinolin-2 (1H)-yl)-5-oxopentanoic acid]: the inhibition at 1 µM at RORγt [2] was determined as 101%; on RORγt [3], 97%; at RORγt [4], 101%. For the same molecule, at RORγt [5] (setting [6]), the inhibition at 3 µM was determined as 101%. In assay [1], the inhibition at 10 µM came out at 86%.
`COc1ccc2c(c1)CCN(C(=O)CCCC(=O)O)[C@H]2C(=O)Nc1ccc([Si](C)(C)C)c(F)c1` [Example 135, 5-((1R)-1-((3-fluoro-4-(trimethylsilyl)phenyl)carbamoyl)-6-methoxy-3,4-dihydroisoquinolin-2(1H)-yl)-5-oxopentanoic acid]: the inhibition in vivo at 30 mg/kg in the assay with IL-17A gene expression was 68%. Besides, the inhibition at 1 µM was 101% at RORγt [2], 97% at RORγt [3] and 102% on RORγt [4]. For the same molecule, the inhibition at 3 µM at RORγt [5] (Jurkat) amounted to 104%.
For the molecule `COc1ccc2c(c1)CCN(C(=O)CCCC(=O)O)[C@H]2C(=O)Nc1cc(F)c2c(c1)CCC2(C)C` [Example 176, 5-((1R)-1-((7-fluoro-1,1-dimethyl-2,3-dihydro-1H-inden-5-yl)carbamoyl)-6-methoxy-3,4-dihydroisoquinolin-2 (1H)-yl)-5-oxopentanoic acid], the inhibition in vivo at 30 mg/kg in the assay on IL-17A gene expression was determined as 91%.
Consider `COc1ccc2c(c1)CCN(C(=O)c1cc(O)no1)[C@H]2C(=O)Nc1cc(F)c2c(c1)CCC2(C)C` [Example 68, (1R)-N-(7-fluoro-1,1-dimethyl-2,3-dihydro-1H-inden-5-yl)-2-((3-hydroxy-1,2-oxazol-5-yl)carbonyl)-6-methoxy-1,2,3,4-tetrahydroisoquinoline-1-carboxamide], for which the inhibition in vivo at 100 mg/kg with IL-17A gene expression (dose 100 mg/kg oral) amounted to 90%. The inhibition at 1 µM on RORγt [2] turned out to be 101%; at RORγt [3], 73%; at RORγt [4], 103%. Besides, the inhibition at 3 µM on RORγt [5] (setting [6]) turned out to be 99%.
Take `COc1ccc2c(n1)CCN(C(=O)N1CC(CC(=O)O)C1)[C@H]2C(=O)Nc1cc(F)c([Si](C)(C)C)c(F)c1` [Example 281, (1-(((5R)-5-((3,5-difluoro-4-(trimethylsilyl)phenyl)carbamoyl)-2-methoxy-7,8-dihydro-1,6-naphthyridin-6(5H)-yl)carbonyl)azetidin-3-yl)acetic acid]: the inhibition in vivo at 10 mg/kg in the assay with IL-17A gene expression is 93%. The figures for the inhibition at 1 µM at RORγt [2] and at RORγt [3] were 102% and 89%, respectively. On RORγt [5] (Jurkat), the inhibition at 3 µM came out at 102%.
With `COc1ccc2c(n1)CCN(C(=O)CCCC(=O)O)[C@H]2C(=O)Nc1cc(F)c([Si](C)(C)C)c(F)c1` [Example 125, 5-((5R)-5-((3,5-difluoro-4-(trimethylsilyl)phenyl)carbamoyl)-2-methoxy-7,8-dihydro-1,6-naphthyridin-6(5H)-yl)-5-oxopentanoic acid], in the assay on IL-17A gene expression, the inhibition in vivo at 30 mg/kg is 89%.
In the case of `COc1ccc2c(c1)CCN(C(=O)N1CC(CC(=O)O)C1)[C@H]2C(=O)Nc1ccc([Si](C)(C)C)c(F)c1` [Example 279, (1-(((1R)-1-((3-fluoro-4-(trimethylsilyl)phenyl)carbamoyl)-6-methoxy-3,4-dihydroisoquinolin-2(1H)-yl)carbonyl)azetidin-3-yl)acetic acid], in the assay on IL-17A gene expression, the inhibition in vivo at 10 mg/kg is 71%. The inhibition at 1 µM was 102% on RORγt [2] and 89% at RORγt [3]. Moreover, the inhibition at 3 µM on RORγt [5] (Jurkat) is 100%.
As for `COc1ccc2c(c1)CCN(C(=O)CCCC(=O)O)[C@H]2C(=O)Nc1cc(F)c([Si](C)(C)C)c(F)c1` [Example 82, 5-((1R)-1-((3,5-difluoro-4-(trimethylsilyl)phenyl)carbamoyl)-6-methoxy-3,4-dihydroisoquinolin-2(1H)-yl)-5-oxopentanoic acid], the inhibition in vivo at 10 mg/kg in the assay on IL-17A gene expression was 85%. The inhibition at 10 µM in assay [1] amounted to 75%.
Turning to `COc1ccc2c(c1)CCN(C(=O)CCCC(=O)O)[C@H]2C(=O)Nc1cc(F)c(C(C)(C)C)c(F)c1` [Example 109, 5-((1R)-1-((4-tert-butyl-3,5-difluorophenyl)carbamoyl)-6-methoxy-3,4-dihydroisoquinolin-2(1H)-yl)-5-oxopentanoic acid], in the assay with IL-17A gene expression, the inhibition in vivo at 30 mg/kg is 96%.
